# Patent publication US20040087602A1, “Stabilized brivudine topical formulations” (priority 2001, published 2004)
# Several values for one entry are separate records, joined by “and”; a condition that tells them apart may be missing. Equal values may be shown once.
# Tests used:
# [1] = test system: 23 clinical HSV-1 strains; conditions: mean of 23 clinical HSV-1 strains, in vitro; cited from earlier work
# 13 clinical VZV strains = conditions: mean of 13 clinical VZV strains, in vitro; cited from earlier work
# [2] = photo-stabilization test of cream, UV-lamp irradiation; assay type: physicochemical; conditions: 2 hours UV-lamp
# Procedure: Studies of photo-stabilization were conducted encapsulating the active ingredient in cyclodextrin-complexes (e.g. α-, β-, γ-cyclodextrin-complexes) or adding different stabilizers. Known photo-stabilizers like anti-oxidants (e.g. propylgallate, alfa-liponic acid), chemical UV-filters (e.g. octyl triazone) and pigments (titanium dioxide, zinc oxid, iron oxid yellow) were used. The efficiency of photo-stabilization was tested by determination of the content of brivudine after 2 hours of irradiation with UV-lamp (dose of 1 MED [Minimal […] dose, 24.8 Wh/m^2, UVA-light]. UVA-light was applied directly to the cream without primary packaging The higher the content of unchanged brivudine after irradiation, the better the photo-stability. […] The pigment iron oxide yellow at a concentration 20% w/w also gave about 85% brivudine content.
# [3] = photodegradation according to ICH guideline CPMP/ICH/279/95; assay type: physicochemical; conditions: unpacked samples without stabilizer, 9.6 hours at 49.5 W/m^2 (dose 475 Wh/m^2)
# From the text: The degradation of brivudine was investigated according to the ICH (International Conference on Harmonization) guideline CPMP/ICH/279/95. […] The brivudine content decreases from about 100% to about 70% after irradiation. At the same time the samples show an increase of known and unknown impurities of about 30%.
# [4] = test system: 20 clinical isolates (HSV-1); conditions: two similar assays, one value per assay; cited from earlier work
Compound,mean IC50 in a panel of 23 clinical HSV-1 strains [1],mean IC50 in 13 clinical VZV strains (13 clinical VZV strains),"brivudine content after irradiation ([2]; iron oxide yellow 20% w/w, 1 MED)","brivudine final content after irradiation ([2]; titanium dioxide 20% w/w, 1 MED)","brivudine content after irradiation, % of the initial concentration ([2]; without photo-stabilizer, 5% w/w brivudine cream, 1 MED (24.8 Wh/m^2, UVA))",increase of known and unknown impurities [3],brivudine content after irradiation ([3]; from about 100%),mean IC50 in a panel of 20 clinical isolates [4]
Nc1nc2c(ncn2COCCO)c(=O)[nH]1 [acyclovir],0.92 µg/mL,0.2 µg/mL,–,–,–,–,–,–
"O=c1[nH]c(=O)n([C@H]2C[C@H](O)[C@@H](CO)O2)cc1/C=C/Br [brivudine, (E)-5-(2-bromovinyl)-2′-deoxyuridine]",0.52 µg/mL,0.001 µg/mL,about 85%,about 85%,about 40%,about 30%,about 70%,–
Nc1nc2c(ncn2CCC(CO)CO)c(=O)[nH]1 [penciclovir],–,0.91 µg/mL,–,–,–,–,–,0.6 µg/mL and 0.8 µg/mL
